# Assay results as given in patent publication US20250092036A1, “COMPOUNDS AND COMPOSITIONS FOR MODULATING THE ACTIVITY OF ERK” (Novartis AG, priority 2023, published 2025).
# How the values were obtained:
# [1] = system: WM793 BRAFV600E tumor xenograft; assay: Anti-tumor activity and tolerability in WM793 BRAFV600E tumor xenograft in nude mice; format: in vivo
# [2] = target: T1, ERK2[2-360(p-T185/p-Y187)]-Avi (Homo sapiens, UniProt P28482); assay: Biochemical assay (HTRF competition assay); format: binding; details: HTRF competition with Example 15 probe, overnight at RT; read-out: Biochemical qualified AC50
# T1 construct: 400 pM ERK2[2-360(p-T185/p-Y187)]-Avi was added to the plate
# T1 sequence (P28482 2-360 limits assumed): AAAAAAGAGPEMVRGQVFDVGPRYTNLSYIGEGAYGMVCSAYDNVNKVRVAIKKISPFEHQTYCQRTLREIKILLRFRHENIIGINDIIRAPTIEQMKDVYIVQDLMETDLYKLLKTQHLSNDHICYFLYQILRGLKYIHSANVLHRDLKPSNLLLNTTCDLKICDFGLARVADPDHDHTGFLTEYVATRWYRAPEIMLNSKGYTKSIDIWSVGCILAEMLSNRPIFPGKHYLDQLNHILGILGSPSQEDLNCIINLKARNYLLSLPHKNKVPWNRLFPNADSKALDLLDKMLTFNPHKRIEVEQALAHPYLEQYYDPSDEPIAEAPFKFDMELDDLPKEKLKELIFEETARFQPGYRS
# [3] = target: T2, nanobit-large-bit-ERK2 and nanobit-small-bit-PEA15 in WM793 cells (Homo sapiens, UniProt P28482); assay: NanoBiT assay; format: cell-based; details: WM793 nanobit stable cell line, overnight incubation; read-out: NanoBiT qualified absolute AC50
# T2 construct: expressed in transfected cells
# T2 sequence (P28482 whole entry): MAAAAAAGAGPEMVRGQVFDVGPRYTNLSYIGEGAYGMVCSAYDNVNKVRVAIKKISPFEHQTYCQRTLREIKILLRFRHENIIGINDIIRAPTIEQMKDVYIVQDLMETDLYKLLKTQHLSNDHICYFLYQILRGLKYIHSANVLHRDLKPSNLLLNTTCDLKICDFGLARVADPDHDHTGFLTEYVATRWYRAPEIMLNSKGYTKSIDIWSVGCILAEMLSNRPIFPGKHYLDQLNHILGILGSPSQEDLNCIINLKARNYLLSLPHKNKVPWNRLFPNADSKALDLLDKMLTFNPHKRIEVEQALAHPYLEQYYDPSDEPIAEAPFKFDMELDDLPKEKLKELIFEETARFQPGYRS
# In short: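 WM793 cells stably expressing LgBiT-ERK2 and SmBiT-PEA15, treated overnight at 37 °C with a 10-point 3-fold dilution series, top final 30 μM. Luminescence was read and normalized to DMSO wells to give percent inhibition. IC50 was fitted from dose-response curves.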
# WM793 cells = assay: Cell proliferation assay (CellTiter-Glo); format: cell-based; details: Homo sapiens, WM793, 72 h, 3 d, read-out: Cell proliferation qualified AC50
# In short: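 WM793 cells in RPMI + 10% FBS, 750 cells/well, treated 3 d at 37° C with 10-point 3-fold dilutions (highest 20 μM). CellTiter-Glo luminescence at Day 0 and Day 3; percent growth inhibition normalized to Day 3 DMSO wells and Day 0 counts, and IC50 taken from dose-response curves.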
structure (smiles),measurement,setting,value
"CN1C[C@@H](F)[C@@H](NC(=O)C2(c3ccc(F)cc3)CCN(C(=O)c3c(C=O)n(CC4CCOCC4)c4ccc(Cl)cc34)CC2)C1 [Example 13, 1-(5-chloro-2-formyl-1-((tetrahydro-2H-pyran-4-yl)methyl)-1H-indole-3-carbonyl)-N-((3S,4R)-4-fluoro-1-methylpyrrolidin-3-yl)-4-(4-fluorophenyl)piperidine-4-carboxamide]",animals sacrificed due to increased body weight loss,"[1]; highest dosing group (300 mg/kg bid 2 day on, 1 day off)",One mouse at the highest dosing group was sacrificed on day 11
same,anti-tumor activity (tumor volume) at the highest dose,"[1]; per os, 300 mg/kg bid 2 day on, 1 day off, 14 days",regression
same,anti-tumor activity (tumor volume),"[1]; per os, 30, 75, 150 mg/kg bid and 300 mg/kg bid 2 day on, 1 day off, 14 days",dose dependent antitumor activity
same,Percent body weight change following first dose / tolerability,"[1]; per os, 30-300 mg/kg bid, 14 days",minimal body weight loss and is well tolerated
same,AC50,[2],0.00048 µM
same,AC50,[3],0.056 µM
same,AC50,WM793 cells,0.054 µM
